Marks after values point to notes of the source that are not given here.
Tested on: Listeria innocua
Test: Effect of cold plasma activation on efficacy of ionized/aerosolized H2O2 against Listeria innocua (Study 2)
Format: cell-based
Details: for Reductions of Listeria on all types and surfaces of fresh produce except the tomato stem scar area: optimized conditions
From the text: To minimize the risk of possible bacteria becoming airborne during treatments, attenuated and non-pathogenic bacteria were used in the study. Two strains of non-pathogenic S. Typhimurium (ATCC 53647 and 53648) and three strains of L. innocua (ATCC 33090, ATCC 51742 and ATCC BAA680) were obtained from American Type Culture Collection (ATCC) (Manassas, Va., USA). Further studies used E. coli O157:H7 (ATCC 700728), S. Typhimurium (ATCC 53647 and 53648), and L. innocua (ATCC 33090) obtained from American Type Culture Collection (ATCC) (Manassas, Va., USA) and maintained as a part of the culture collection at the USDA Eastern Regional Research Center (Wyndmoor, Pa. USA). The bacteria were made to be resistant to nalidixic acid by successive growth in Trypic Soy Broth (TSB) (Difco, Sparks, Md., USA) with increasing nalidixic acid concentrations. All strains were stored at −80° C. in 1 mL of TSB containing 10% glycerol. Working cultures of S. Typhimurium and L. innocua were maintained in 9 mL TSB (supplemented with 100 μg/mL nalidixic acid for S. Typhimurium) at 4° C. after incubating at 37° C. for […], respectively, and sub-cultured each time.
Each strain of S. Typhimurium and L. innocua was cultured in 9 mL TSB (supplemented with 100 μg/mL nalidixic acid for S. Typhimurium) and incubated at 37° C. for 40 h and 48 h, respectively, harvested by centrifugation at 4000×g for 10 min at 4° C., and resuspended in 9 mL sterile Buffered Peptone Water (BPW; Difco). The pellets were resuspended in BPW to form cell suspensions with a final concentration of 108˜10^9 CFU/mL. Subsequently, suspended pellets of two strains of Salmonella and three strains of L. innocua were combined to obtain two separate culture cocktails.
Grape tomatoes, granny smith apples, romaine lettuce and cantaloupes were purchased from local markets (Philadelphia, Pa., USA) and kept at 10° C. prior to use. Fruits and vegetables were removed from 10° C. refrigeration and equilibrated to ambient temperature before being inoculated. Romaine lettuce was divided into upper green leaf and midrib tissues. Six tomatoes, six pieces (2×2 cm) of apple skins, five pieces (3×3 cm) of Romaine lettuce upper leaves, five pieces (3 cm length) of Romaine lettuce midrib area and six pieces (2×2 cm) of cantaloupe rinds with 2×3 mm thickness of flesh were used for each treatment per replicate. Bach piece w as spot inoculated with 10 μL of Salmonella and L. innocua by depositing droplets with a micropipette. The inoculated samples were dried in a bio-hood for 1 h (for tomato surfaces, romaine lettuce, apple skins and cantaloupe rinds) or 2 h (for tomato stem scars) at ambient temperature.
Produce items were placed onto a sterile test tube rack with the inoculated area facing up and the rack with produce pieces were placed inside of a treatment chamber (12×12×24 inch).
Therefore, each kind of produce was treated with and without cold plasma ionized under the same optimized conditions.
After each treatment, the tomato stem scars and surfaces with the inoculated bacteria were removed using a pair of sterile scissors. Each type of produce item from the same treatment was combined (total weight: 1.51±0.29 g for tomato stem scars; 2.07±0.15 g for tomato surfaces; 6.37±0.92 g for apple skins; 1.62±0.34 g for Romaine lettuce upper leaves: 13.30±2.97 g for Romaine lettuce midrib tissues: 9.58±1.26 g for cantaloupe rinds) and transferred into an 80 mL filtered stomacher bag. After addition of 30 mL BBL buffered peptone water into the bag, the sample in the bag was homogenized using a mini blender (Mini Mix CC, Interscience laboratories Inc., Woburn, Mass., USA) for 2 min at a setting of 4. […] Tryptic Soy Agar with 200 μg/mL pyruvate acid and 100 μg/mL nalidixic acid (TSA-PN) and PALCAM Agars (Difco) were used for the enumeration of S. Typhimurium and L. innocua, respectively.

[1] = Tomato-stem scar, three cycles of 20 s spray time plus 20 min dwell time, listed as H2O2 + cold plasma

## OO [H2O2, hydrogen peroxide]
  Listeria reductions for cantaloupes and two locations on lettuces: 2.61 to 3.40 log CFU/piece
Cantaloupe rind, 30 s spray time + 30 min dwell, ND1: not detectable (detection limit 0.70 log CFU/piece), listed as H2O2 + cold plasma
  Populations of Listeria innocua: ND1^c
Cantaloupe rind, 30 s spray time + 30 min dwell, listed as H2O2 + cold plasma
  Reductions of Listeria innocua: 5.10 ± 0.30^x log CFU/piece
Granny Smith apple, 8 s spray time + 30 min dwell, ND1: not detectable (detection limit 0.70 log CFU/piece), listed as H2O2 + cold plasma
  Populations of Listeria innocua: ND1^c
Granny Smith apple, 8 s spray time + 30 min dwell, listed as H2O2 + cold plasma
  Reductions of Listeria innocua: 5.24 ± 0.22^x log CFU/piece
Romaine lettuce-midrib, 30 s spray time + 30 min dwell, ND2: not detectable (detection limit 0.76 log CFU/piece), listed as H2O2 + cold plasma
  Populations of Listeria innocua: ND2^c
Romaine lettuce-midrib, 30 s spray time + 30 min dwell, listed as H2O2 + cold plasma
  Reductions of Listeria innocua: 5.21 ± 0.11^x log CFU/piece
Romaine lettuce-upper leaf, 30 s spray time + 30 min dwell, ND2: not detectable (detection limit 0.76 log CFU/piece), listed as H2O2 + cold plasma
  Populations of Listeria innocua: ND2^c
Romaine lettuce-upper leaf, 30 s spray time + 30 min dwell, listed as H2O2 + cold plasma
  Reductions of Listeria innocua: 5.19 ± 0.08^x log CFU/piece
[1]
  Populations of Listeria innocua: 2.94 ± 0.89^c log CFU/piece
  Reductions of Listeria innocua: 2.62 ± 0.89^x log CFU/piece
Tomato-stem scar, three cycles of 20 s spray time plus 20 min dwell time, listed as iHP
  Reductions of Listeria innocua: 2.36 log CFU/piece
Tomato-surface, 8 s spray time + 30 min dwell, ND1: not detectable (detection limit 0.70 log CFU/piece), listed as H2O2 + cold plasma
  Populations of Listeria innocua: ND1^c
Tomato-surface, 8 s spray time + 30 min dwell, listed as H2O2 + cold plasma
  Reductions of Listeria innocua: 5.16 ± 0.20^x log CFU/piece
Listed as cold plasma-activated hydrogen peroxide (H2O2)
  Reductions of Listeria on all types and surfaces of fresh produce except the tomato stem scar area: > 5 log CFU/piece
Listed as hydrogen peroxide (H2O2) with cold plasma
  Reductions of Listeria on all types and surfaces of fresh produce except the tomato stem scar area: more than 5 log CFU/piece
Listed as iHP
  Reductions of Listeria on all types and surfaces of fresh produce except the tomato stem scar area: more than 5 log CFU/piece
